Laboratory results: patent US20250134862A1, “PROCESS FOR TREATING LIVESTOCK EXPOSED TO TOXIC FORAGE USING MELATONIN COMPOSITIONS” (BOARD OF TRUSTEES OF THE UNIVERSITY OF ARKANSAS, priority 2022, published 2025)

What was measured:
[1] = test system: steer calves of pregnant beef cattle grazing toxic, endophyte-infected tall fescue (E+); test: Example 3: body weight of steer calves born to dams grazing E+ fescue with melatonin supplementation; format: in vivo; conditions: for Calf weight: raw group average
From the text: (§1) The same artificially inseminated cows were used in Example 3 that were used Example 2. As outlined above in Example 2, forty-nine (n=49) multiparous crossbred beef cows were artificially inseminated with sex-sorted semen (Y chromosome-bearing sperm) from a single Angus sire and maintained on pastures free from E+ fescue prior to the start of the treatment period. Pregnant cows were stratified into three treatment groups based on body weight, with two replications per treatment: non-toxic, novel endophyte-infected (NE+) tall fescue without melatonin supplementation (NE+/NM; n=15), E+ fescue with melatonin supplementation (E+/M; n=16), and E+ fescue without melatonin supplementation (E+/NM; n=18). The treatment period was over 70 d between May and July (d 147±1 to 217-1 of gestation). A commercially available feed was mixed with melatonin (100 μg/kg BW) or without melatonin and hand-fed to each cow daily. At the conclusion of the treatment period (56±18 d before parturition), cattle were moved to a single group and maintained on pastures free from E+ fescue, where they remained through weaning.
After birth, calves were castrated within 48-72 hours. Dams and steer calves were weighed every 28 days relative to calving (FIG. 31): i.e., at d 0, 28, 56, 84, 112, 140, and 168 (d 0=calving, <24 h). Table 3 depicts calf weight at preweaning, postweaning, and feedlot for NE+/NM, E/+M, and E/+NM (respectively, green, yellow, and red in FIG. 34B). Four-hour milk yields on d 28±3 and d 56±3 were used to estimate daily milk volume and weight. Protein, lactose, and triglycerides were evaluated in milk samples collected on d 28 and d 56.
(§2) Dam body weight (FIG. 32) and calf body weight (FIG. 34) were analyzed, using the MIXED procedure of SAS specific for repeated measures with treatment and time as fixed effects and replicate as a random effect. Dam prolactin, calf birth weight (FIG. 33), milk volume (FIGS. 35 and 37), and milk weight (FIGS. 36 and 38) were analyzed using the MIXED procedure of SAS with treatment as a fixed effect and replicate as a random effect.

[2] = test system: pregnant beef cattle grazing toxic, endophyte-infected (E+) tall fescue; test: Example 2: color Doppler ultrasound of uterine and coccygeal artery hemodynamics; format: in vivo
From the text: (§3) Multiparous crossbred cows were artificially inseminated with sex-sorted semen (Y chromosome-bearing sperm) from a single Angus sire and maintained on pastures free from E+ fescue prior to the start of the treatment period. Pregnant cows […] were assigned to one of three treatment groups based on body weight, with two replications per treatment: non-toxic, novel endophyte-infected (NE+) fescue without melatonin supplementation (NE+/NM; […]), E+ fescue with melatonin supplementation (E+/M; n=16), and E+ fescue without melatonin supplementation (E+/NM; n=18). Treatments were administered over a 70-d period between May and July (d 147±1 to 217±1 of gestation). A commercially available feed was mixed with or without melatonin [100 μg/kg body weight (BW)] and hand-fed daily.
Cows were weighed every fourteen (14) days relative to the start of the 70-d treatment period (FIG. 16-17): i.e., at d 0, 14, 28, 42, 56, and 70. Measurements of plasma prolactin were obtained on d 70 of the treatment period by radioimmunoassay (FIG. 18). Color Doppler ultrasound of the uterine and coccygeal artery was conducted at d 68±1 of the treatment period. Cardiac cycle waveforms from three independent ultrasound scans were used to determine the following uterine artery measures (FIGS. 19-25) and coccygeal artery measures (FIGS. 26-30): diameter (cm), pulsatility index (PI), resistance index (RI), blood flow (BF; mL/min; equal to MnV*vessel area*60 s), and blood flow as a proportion of BW (BF/BW).
(§4) After the treatment period, cattle were maintained together as a single group on pastures that were free from E+ fescue. Body weights were analyzed using the MIXED procedure of SAS specific for repeated measures with treatment, time, and the interaction as fixed effects and replicate as random. Arterial hemodynamics and prolactin measures were analyzed using the MIXED procedure of SAS with treatment as a fixed effect and replicate as a random effect. Ultrasonography day and order were tested as covariates and removed from the model (P<0.05).

[3] = test system: beef cows that grazed toxic, endophyte-infected tall fescue (E+) during gestation; test: Example 3: estimated daily milk volume and weight from four-hour milk yields; format: in vivo, cattle; conditions: d 56, P<0.03
From the text: as §1, with “A commercially available feed was mixed with melatonin (100 μg/kg BW) or without melatonin and hand-fed to each cow daily. At the conclusion of the treatment period (56±18 d before parturition), cattle were moved to a single group and maintained on pastures free from E+ fescue, where they remained through weaning.” left out
After birth, calves were castrated within 48-72 hours. […] Protein, lactose, and triglycerides were evaluated in milk samples collected on d 28 and d 56.
as §2

[4] = test system: pregnant heifers consuming endophyte-infected (E+) tall fescue seed and their offspring; test: Example 1: gestation length and body weights of calves born to dams fed tall fescue seed with or without melatonin; format: in vivo, cattle
From the text: Fifty-seven (n=57) pregnant heifers artificially inseminated with sex-sorted semen (X chromosome-bearing sperm) from a single Angus sire were maintained at the Savoy Unit at the University of Arkansas on Bermuda grass pastures and supplemented as needed during the first 4-5 months of gestation. After that time, pregnant heifers were housed in a barn at the Savoy Unit (FIG. 1) having a controlled feeding system (SmartFeed Pro, C-Lock, Inc.). The controlled feeding system used radio frequency identification to control feed mixtures and intake for heifers.
(§5) After the training period, the heifers started a 70-day feeding trial (FIG. 2) to evaluate the influence of toxic fescue and melatonin on the developing fetus. To mimic the natural peak of ergot alkaloids in Kentucky 31 fescue, toxic fescue seed was fed with or without melatonin during the 70-day period between May and July. The feed trial period diet consisted of an ad libitum Bermuda grass hay and one of four (4) feed rations. The trial utilized a 2×2 factorial treatment arrangement (E− without melatonin, E−/NM; E− with melatonin, E−/M; E+ without melatonin, E+/NM; or E+ with melatonin, E+/M; melatonin dose: 100 μg/kg of BW) for a 70-d period between May and July starting at 160±13 days of gestation to mimic ergot alkaloid concentrations (ergot alkaloid dose: 13 μg/kg of BW) in a grazing scenario (FIG. 2). Each of the four feed ration treatments was represented in each of the two pens/groups of cattle (FIG. 1). All diets contained corn gluten and molasses and were fed using SmartFeed Pro (C-Lock Inc.) controlled feeding units between 0900 and 1400 h daily. Cattle were removed from dietary treatments 39±19 days before calving. Two replicates were housed separately in the open-air barn (FIG. 1), each with a 1.2-ha paddock. Before and following the 70-d treatment period, all cattle were maintained as a single group free from toxic fescue.
(§6) Powdered melatonin (Cayman Chemical Company) was mixed into 100% ethanol and mixed with feed (fescue seed, corn gluten, and molasses) in a concrete mixer until the feed was dry (ethanol evaporates, and melatonin remains). Melatonin was dosed at about 100 μg/kg of body weight or about 50 mg/head/day for all groups. Ad libitum Bermuda grass hay was offered in an adjacent pasture area to encourage animals to leave the barn after consuming the feed ration during both the training and the feed trial period. After completion of the feed trial, heifers were maintained on fescue-free pastures at the Physiology Farm and supplemented as needed through calving and until their calves were weaned.
Calf body weight was recorded at birth, and calves were tagged for identification purposes. Blood samples were collected from calves at 12±2 days of age via jugular venipuncture (four 10 mL purple top tubes and one 4 mL purple top tube). At weaning, body weight was recorded, and blood samples were collected via jugular venipuncture (four 10 mL purple top tubes and one 4 mL purple top tube). Vaccinations were administered to calves according to normal procedures at the Savoy Unit. Heifers and calves were maintained according to standard procedures at the Savoy Unit and the Physiology Farm.
Calves were weaned at 226±19 d of age. Gestation length, calf birth weight, 205-day adjusted weaning weight (205-d WW), carcass ultrasonography measures (ribeye area, REA: REA/CWT), percent intramuscular fat (IMF), rib fat thickness (UFAT), rump fat thickness (URUMP), post-weaning weights (recorded every 28 days between weaning and 84 days post-weaning), and post-weaning average daily gain (ADG) (between weaning and 84 days post-weaning) were evaluated in offspring (n=44) (FIGS. 6-13). Post-weaning calf weights were analyzed using the MIXED procedure of SAS specific for repeated measures with treatment and time as fixed effects and replicate as random. […]

[5] = test system: pregnant beef cattle grazing toxic, endophyte-infected (E+) tall fescue; test: Example 2: plasma prolactin by radioimmunoassay on d 70 of the treatment period; format: in vivo; conditions: cows on E+ fescue with melatonin 100 μg/kg BW, d 70 of treatment
From the text: as §3
Cows were weighed every fourteen (14) days relative to the start of the 70-d treatment period (FIG. 16-17): i.e., at d 0, 14, 28, 42, 56, and 70. […]
as §4, with “Ultrasonography day and order were tested as covariates and removed from the model (P<0.05).” left out

[6] = test system: offspring of dams that consumed endophyte-infected (E+) tall fescue seed; test: Example 1: body composition (carcass) ultrasonography of calves at weaning; format: in vivo, cattle
From the text: as §5, §6
Calves were weaned at 226±19 d of age. Gestation length, calf birth weight, 205-day adjusted weaning weight (205-d WW), carcass ultrasonography measures (ribeye area, REA: REA/CWT), percent intramuscular fat (IMF), rib fat thickness (UFAT), rump fat thickness (URUMP), post-weaning weights (recorded every 28 days between weaning and 84 days post-weaning), and post-weaning average daily gain (ADG) (between weaning and 84 days post-weaning) were evaluated in offspring (n=44) (FIGS. 6-13). Post-weaning calf weights were analyzed using the MIXED procedure of SAS specific for repeated measures with treatment and time as fixed effects and replicate as random. All other variables were analyzed using the MIXED procedure of SAS with treatment as a fixed effect and replicate as random with gestation length as a covariate for birth weight. Table 1 summarizes the gestation length and body weights of calves born to primiparous dams that consumed E- or E+ fescue seed with (M) or without melatonin (NM) supplementation during mid-late gestation. Data in Tables 1 and 2 are presented as LS MEANS±SEM.

[7] = cows on E+ fescue with melatonin, d 68±1 of treatment
[8] = calves, melatonin main-effect mean, dams 100 μg/kg BW for 70 d, LS mean
[9] = calves at weaning, melatonin main-effect mean, LS mean

## COc1ccc2[nH]cc(CCNC(C)=O)c2c1 [melatonin]
[1]; Birth
  Calf weight: 74.43 lbs.
[1]; D 28
  Calf weight: 148.07 lbs.
[1]; D 56
  Calf weight: 212.07 lbs.
[1]; D 84
  Calf weight: 278.46 lbs.
[1]; D 112
  Calf weight: 347.15 lbs.
[1]; D 140
  Calf weight: 409.15 lbs.
[1]; D 168
  Calf weight: 476.77 lbs.
[1]; D 196
  Calf weight: 535.31 lbs.
[1]; D +28 Post-Weaning
  Calf weight: 641.23 lbs.
[1]; D +56 Post-Weaning
  Calf weight: 703.69 lbs.
[1]; D +84 Post-Weaning
  Calf weight: 766.62 lbs.
[1]; D +112 Post-Weaning
  Calf weight: 852.92 lbs.
[1]; Feedlot - October 29
  Calf weight: 1003.33 lbs.
[1]; Weaning
  Calf weight: 622.31 lbs.
[1]; second study, 28 days prior to weaning, loss 28 lbs., statistically adjusted means
  share of the loss in calf weight recovered by feeding melatonin: over 65%
[1]; second study, 28 days prior to weaning, multiparous cows, statistically adjusted means
  calf weight recovered by feeding melatonin: approximately 19 lbs.
[2]; [7]
  Coccygeal artery PI (pulsatility index): 0.86±0.1
  Coccygeal artery RI (resistance index): 0.53±0.02
[2]; pregnant multiparous crossbred beef cows grazing endophyte-infected tall fescue
  effects on uterine and coccygeal artery hemodynamics: limited effects
[3]
  estimated daily milk volume relative to NE+/NM dams: decreased
  estimated daily milk weight relative to NE+/NM dams: decreased
[4]; Example 1, first-calf heifers, statistically adjusted means
  calf weight at weaning recovered by feeding melatonin: approximately 53 lbs.
[4]; Example 1, loss approximately 68 lbs., statistically adjusted means
  share of the loss in calf weight at weaning recovered by feeding melatonin: over 75%
[4]; P=0.02 as printed in text
  birth weight of offspring, dams receiving melatonin relative to those without: increased
[4]; [8]
  205-d WW (205-day adjusted weaning weight): 176.95 kg
  Birth Weight: 25.90 kg
[4]; fescue × melatonin interaction
  205-d weaning weight, toxic fescue seed with melatonin compared to toxic fescue seed without melatonin: increased
  post-weaning calf weight, toxic fescue seed with melatonin compared to toxic fescue seed without melatonin: increased
[4]; melatonin main-effect mean (E- and E+ diets pooled), 100 μg/kg BW in feed for 70 d mid-late gestation, LS mean
  Gestation Length: 272.00 days
[5]
  Prolactin (plasma): 86.9 ± 14.9 ng/mL
[6]; [9]
  IMF (percent intramuscular fat): 2.60%
  REA (ribeye area): 5.87 in.^2
  UFAT (rib fat thickness): 0.08 in.
  URUMP (rump fat thickness): 0.08 in.
[6]; fescue × melatonin interaction
  ribeye area, toxic fescue seed with melatonin compared to toxic fescue seed without melatonin: increased
